Results on eleven compounds are retold here after patent publication US6924278B2, “Aroyl-piperazine derivatives, their preparation and their use as tachykinin antagonists” (Fujisawa Pharmaceutical Co., Ltd., priority 1997, dated 2005).

Counter-ions that a name gives are not always drawn.

For orientation: inhibition means the drop in the measured response relative to a control, in per cent. The melting point is the temperature of the solid-liquid transition.

The target of the first series is T1, h-NK1 receptors (Homo sapiens, UniProt P25103).
T1 construct: expressed in transfected cells; host or cells: CHO cells (permanent expression), crude cell membranes
T1 sequence (P25103 whole entry): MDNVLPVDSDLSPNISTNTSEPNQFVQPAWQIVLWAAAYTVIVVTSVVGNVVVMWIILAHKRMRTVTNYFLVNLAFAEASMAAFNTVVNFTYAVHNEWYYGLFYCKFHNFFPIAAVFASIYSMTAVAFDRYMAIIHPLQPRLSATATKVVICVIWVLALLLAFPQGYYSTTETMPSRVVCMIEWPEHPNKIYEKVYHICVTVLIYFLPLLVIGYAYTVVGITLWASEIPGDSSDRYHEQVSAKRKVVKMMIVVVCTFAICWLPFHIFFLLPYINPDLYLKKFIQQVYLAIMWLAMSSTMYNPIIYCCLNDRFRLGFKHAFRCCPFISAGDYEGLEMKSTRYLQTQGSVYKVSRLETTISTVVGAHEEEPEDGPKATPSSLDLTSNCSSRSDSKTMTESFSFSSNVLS
The experiment in a line: Evaluation of NK1 antagonist transport efficiency to the central nervous system using a h-NK1 receptor binding assay (brain extract after i.v. dosing of rats). The following applies: 5 min; compound extracted from brain of male SD rats 5 min after i.v. injection at the dose of 1 mg/kg; CHO cell membranes expressing h-NK1; read-out: inhibition rate of 125I-BH-Substance P binding to h-NK1 receptors. The procedure: A. Evaluation of NK1 Antagonist Transport Efficiency to the Cental Nervous System using a h-NK1 Receptor Binding Assay
(1) Administration of Test Compound and Extraction of the Compound from Brain
Male SD rats were given an i.v. injection of a solution containing a test compound (1 mg/kg). 5 Min later the animals were anesthetized by ether, bled and perfused through the aorta ascendens with 20 ml of saline. The brain was rapidly removed, weighed and homogenized in 4 vol. ice-cold distilled water by using Polytoron (KINEMATICA). To extract the test compound, 500 μl of the homogenate, 100 μl of methanol, 500 μl of 0.1 N NaOH and 4 ml of ethyl acetate were mixed by shaking for 10 min at room temperature. The organic phase (2.5 ml) was recovered by centrifugation at 3,000 rpm for 10 min, dried and dissolved in dimethyl sulfoxide.
(2) h-NK1 Receptor Binding Assay
(a) Crude CHO Cell Membrane Preparation
CHO cells permanently expressing h-NK1 receptors were harvested and homogenized with a Dounce homogenizer at 4° C. in a buffer (0.25 M sucrose, 25 mM Tris-HCl (pH 7.4), 10 mM MgCl2, 1 mM EDTA, 5 μg/ml p-APMSF). The homogenate was centrifuged (500×g, 10 min), and the pellet was resuspended in the same buffer, homogenized, and centrifuged. The two supernatants were combined and centrifuged (100,000×g, 1 hour). The crude cell membranes thus isolated were resuspended in a buffer (25 mM Tris-HCl (pH 7.4), 10 mM MgCl2, 1 mM. EDTA, 5 μg/ml p-APMSF) and stored at −80° C. until use.
(b) ^125I-BH-Substance P Binding to the Prepared Membrane
Cell membranes (6 μg/ml) were incubated with ^125I-BH-Substance P (0.1 nM) with or without the extracted compounds in 0.25 ml of a medium (50 mM Tris-HCl (pH 7.4), 5 mM MnCl2, 20 μg/ml chymostatin, 40 μg/ml bacitracin, 4 μg/ml leupeptin, 5 μg/ml p-APMSF, 200 μg/ml BSA) at 22° C. for 90 min. At the end of the incubation period, the contents were quickly filtered through a Blue Mat 11740 filter (pretreated with 0.1% polyethylenimine for 3 hours prior to use) by using SKATRON Cell Harvester. The filter was then washed with a washing buffer (50 mM Tris-HCl (pH 7.4), 5 mM MnCl2). The radioactivity was counted by using an auto gamma counter (Packard RIASTAR 5420A). All data presented are specific binding defined as that displaceable by 3 μM unlabeled Substance P.
Take `Cc1ccc(C[C@@H]2CN(CC#CCN3CCOC[C@@H]3CF)CCN2C(=O)c2cc(C(F)(F)F)cc(C(F)(F)F)c2)cc1C` [70-(1), (2R)-1-[3,5-Bis(trifluoromethyl)benzoyl]-2-(3,4-dimethylbenzyl)-4-[4-((3R)-3-fluoromethylmorpholino)-2-butynyl]piperazine dihydrochloride]: the inhibition at 1 mg/kg is more than 80%. Take `Cc1ccc(C[C@@H]2CN(CC#CCN3CCOCC(F)C3)CCN2C(=O)c2cc(C(F)(F)F)cc(C(F)(F)F)c2)cc1C` (stereo partly drawn) [70-(2), (2R)-1-[3,5-Bis(trifluoromethyl)benzoyl]-2-(3,4-dimethylbenzyl)-4-[4-(tetrahydro-6-fluoro-1,4-oxazepin-4(5H)-yl)-2-butynyl]piperazine dihydrochloride]: the inhibition at 1 mg/kg was more than 80%. On the same count and under the same terms, next, `CC[C@H]1COCCN1CC#CCN1CCN(C(=O)c2cc(C(F)(F)F)cc(C(F)(F)F)c2)[C@H](Cc2c[nH]c3ccccc23)C1` [73-(2), (2R)-1-[3,5-Bis(trifluoromethyl)benzoyl]-4-[4-((3S)-3-ethylmorpholino)-2-butynyl]-2-[(1H-indol-3-yl)methyl]piperazine dihydrochloride]: more than 80%; `CC[C@@H]1COCCN1CCN1CCN(C(=O)c2cc(C(F)(F)F)cc(C(F)(F)F)c2)[C@H](Cc2ccc(C)c(C)c2)C1` [80-(1), (2R)-1-[3,5-Bis(trifluoromethyl)benzoyl]-2-(3,4-dimethylbenzyl)-4-[2-((3R)-3-ethylmorpholino)ethyl]piperazine dihydrochloride]: more than 80%; `CC[C@@H]1COCCN1CCN1CCN(C(=O)c2cc(C(F)(F)F)cc(C(F)(F)F)c2)[C@H](Cc2c[nH]c3ccccc23)C1` [81-(10), (2R)-1-[3,5-Bis(trifluoromethyl)benzoyl]-4-[2-((3R)-3-ethylmorpholino)ethyl]-2-[(1H-indol-3-yl)methyl]piperazine dihydrochloride]: more than 80%.

On to `COc1ccc(CC2CN(CC#CCN3CCOCC3(C)C)CCN2C(=O)c2cc(C(F)(F)F)cc(C(F)(F)F)c2)cc1C` (centres unmarked) [85-(3), 1-[3,5-Bis(trifluoromethyl)benzoyl]-4-[4-(3,3-dimethylmorpholino)-2-butynyl]-2-(4-methoxy-3-methylbenzyl)piperazine dihydrochloride], for which the inhibition at 1 mg/kg was more than 80%. Same read-out and setting: next, `Cc1ccc(C[C@@H]2CN(CC#CCN3CCOCC3(C)C)CCN2C(=O)c2cc(N(C)C)cc(C(F)(F)F)c2)cc1C` [90-(5), (2R)-1-[3-(Dimethylamino)-5-(trifluoromethyl)benzoyl]-2-(3,4-dimethylbenzyl)-4-[4-(3,3-dimethylmorpholino)-2-butynyl]piperazine dihydrochloride]: more than 80%; `O=C(c1cc(C(F)(F)F)cc(C(F)(F)F)c1)N1CCN(CC#Cc2cccnc2)C[C@H]1Cc1c[nH]c2ccccc12` [Example 1-(1), (2R)-1-[3,5-bis(trifluoromethyl)benzoyl]-2-[(1H-indol-3-yl)methyl]-4-[3-(3-pyridyl)-2-propynyl]piperazine]: more than 80%.

Tested on in the next series: not given
Test: not given
Conditions: not given
`COC[C@@H]1COCCN1CCN1CCN(C(=O)c2cc(C(F)(F)F)cc(C(F)(F)F)c2)[C@H](Cc2c[nH]c3ccccc23)C1.Cl.Cl`: the melting point was 130 to 150 °C.

For `CNc1cccc(CC2CN(CC#CCN3CCOCC3(C)C)CCN2C(=O)c2cc(C(F)(F)F)cc(C(F)(F)F)c2)c1` (centres unmarked) (as salt: hydrochloride) [Example 93, 1-[3,5-Bis(trifluoromethyl)benzoyl]-4-[4-(3,3-dimethylmorpholino)-2-butynyl]-2-[3-(N-methylamino)benzyl]piperazine], the melting point was in the range of 192 to 195 °C. The same measure, in the same setting: the result for `Cc1ccc(C[C@@H]2CN(Cc3cnn(CC(=O)O)c3)CCN2C(=O)c2cc(C(F)(F)F)cc(C(F)(F)F)c2)cc1C` [Example 47, (2R)-1-[3,5-bis(trifluoromethyl)benzoyl]-4-[[1-(carboxymethyl)-1H-pyrazol-4-yl]methyl]-2-(3,4-dimethylbenzyl)piperazine] reads 223 to 230 °C.
